In patent US20240342291A1, “Therapeutic Coordination Polymers Containing Pharmaceuticals for Drug Release Applications” (UNIVERSITY OF WINDSOR, priority 2021, published 2024):

Experiments:
Assay type in all cases: physicochemical
[1] = Dissolution (drug release) in 0.05 M phosphate buffer pH 6.8
[2] = Intrinsic dissolution rate (IDR) in 0.05M phosphate buffer pH 6.8
[3] = Pharmaceutical loading (relative percentage of diclofenac by mass)
Source text: It has been appreciated that the pharmaceutical loading in the TCPs may be less than that of a commercially available pharmaceutical sodium salt due to the mass of the organic linkers. Provided below is Table I showing a summary for the relative percentages in some of specific diclofenac TCPs. For example, the percent of diclofenac in sodium diclofenac is 93%, whereas the TCPs had loading ranging from 42-70%. The percentage of metal within the TCPs by mass ranged from 2.6-7.9% and the percent of linker by mass ranged from 22-41%. The TCP with EtOH in the name were synthesized in EtOH, all others were synthesized in MeOH. However, it is not strictly required that TCPs be prepared in MeOH and TCPs may be prepared in EtOH instead, or other solvents such as but not limited to: water, acetonitrile, dimethyl sulfoxide, nitromethane, isopropyl alcohol, dimethylformamide or a mixture thereof.

ibuprofen released ([1]; after 5 min)	intrinsic dissolution rate (IDR) [2]	diclofenac released ([1]; after 1 h)	percent of diclofenac (loading) [3]	Structure (SMILES)
100%				CC(C)Cc1ccc(C(C)C(=O)O)cc1.[Na] (stereo not shown) [sodium ibuprofen]
	1161±0.216 μg cm^−2 min^−1	100%	93%	O=C(O)Cc1ccccc1Nc1c(Cl)cccc1Cl [sodium diclofenac]
